Experimental data as given in patent publication EP0906100B1, “USE OF 5-HT 1A? RECEPTOR ANTAGONISTS FOR THE TREATMENT OF URINARY INCONTINENCE” (RECORDATI S.A., priority 1996, dated 1997).

Key:
[1] = system: rhythmic bladder voiding contractions; experiment: Volume-induced rhythmic bladder voiding contractions in anaesthetized rats; format: in vivo; conditions: for AMPLITUDE mm Hg before treatment / FREQUENCY No. contr./15 min before treatment: baseline; for AMPLITUDE mm Hg before treatment / AMPLITUDE mm Hg after treatment: animals with frequency reduction <50%; for AMPLITUDE mm Hg before treatment / FREQUENCY No. contr./15 min before treatment / AMPLITUDE mm Hg after treatment / FREQUENCY No. contr./15 min after treatment: mean±S.E.; for BLADDER CONTRACTIONS Disappearance time: duration of bladder quiescence, mean (S.E. in next cell)
Protocol: Female Sprague Dawley rats weighing 225-275 g (Crl: CD° BR, Charles River Italia) were used. The animals were housed with free access to food and water and were maintained on a forced 12 h alternating light-dark cycle at 22-24°C for at least one week, except during the experiment. The activity on the rhythmic bladder voiding contractions was evaluated according to the method of Dray (J. Pharmcol. Methods, 13:157, 1985), with some modifications as in Guarneri (Phannacol. Res., 27:173, 1993). […] The catheter was tied in place with a ligature around the external urethral orifice and was connected with conventional pressure transducers (Statham P23 ID/P23 XL). […] The bladder was then filled via the recording catheter by incremental volumes of warm (37°C) saline until reflex bladder voiding contractions occurred (usually 0.8-1.5 ml). Two parameters were recorded from the cystometrogram: the frequency of voiding contractions, calculated by counting the number of peaks/15 min of observation, and the mean amplitude of these contractions (mean height of the peaks in mmHg) in the same time period. For intravenous (i. v. ) injection of bioactive compounds, a PE 50 polyethylene tubing filled with physiological saline was inserted into the jugular vein.
Bioactivity was assessed in individual animals (using 6-10 rats per dose), by recording the number and height of the peaks for 15 min after drug injection and comparing them with those previously recorded for 15 min after the intravenous administration of vehicle alone. […] The statistical significance of changes in frequency and amplitude before and after treatment was assessed by Student's t test for paired data. Changes showing a probability P<0.01 were considered significant.
An all-or-none criterion was also used to compare bioactivity in terms of ED50 values. Rats showing a treatment-related change of ≥30% relative to the basal value were considered to be positive. Quantal dose-response curves and ED50 values were evaluated by the method of Bliss (J. Pharm. Pharmacol., 11:192, 1938).
The rapid distension of the urinary bladder in urethane-anaesthetized rats produced a series of rhythmic bladder voiding contractions whose characteristics have been described (Maggie et al., Brain Res., 380, 83, 1986; Maggi, et al., J. Pharmacol. Exp. Ther., 230, 500, 1984). The frequency of these contractions is related to the sensory afferent arm of reflex micturition and to the integrity of the micturition centre, while their amplitude is a property of the efferent arm of the reflex (Maggi et al., J. Pharmacol. Meth., 15, 157, 1986; Maggi et al., Brain Res.. 415, 1, 1987; Maggi et al., Naun. Schmied. Arch. Pharmacol., 332, 276, 1986; Maggi et al., J. Urol., 136, 696, 1986).

[2] = system: cystometric parameters (bladder volume capacity, micturition pressure); experiment: Cystometric parameters (BVC, MP) in the conscious rat; format: in vivo, rats; conditions: for BVC before treatment / MP before treatment: baseline; for BVC before treatment / MP before treatment / BVC after treatment / MP after treatment: mean±S.E.; for BVC % change / MP % change / BVC after treatment / MP after treatment: 15 min after injection
Protocol: Male Sprague Dawley rats (Crl: CD° BR) weighing 250-350 g were used. The animals were housed with free access to food and water and maintained on a forced 12 h alternating light-dark cycle at 22-24°C for at least one week, except during performance of the experiment.
An approximately 10 mm long midline incision was made in the shaved and cleaned abdominal wall. The urinary bladder was gently freed from adhering tissues, emptied, and then cannulated, via an incision at the dome, with a polyethylene cannula (Portex PP30), which was permanently sutured with silk thread. The cannula was exteriorized through a subcutaneous tunnel in the retroscapular area, where it was connected with a plastic adapter to avoid the risk of removal by the animal. For intravenous (i.v.) injection of test compounds, a PE 50 polyethylene tubing filled with physiological saline was inserted into the jugular vein and exteriorized in the retroscapular area.
Since cystometrographic parameters have been reported to be influenced by the time elapsed after catheter implantation […].
On the day of the experiment, the rats were placed in Bollman's cages; after a stabilization period of 20 min, the free tip of the bladder catheter was connected through a T-shaped tube to a pressure transducer (Bentley T 800/Marb P 82) and to a peristaltic pump (Gilson minipuls 2) for a continuous infusion, at the constant rate of 0.1 ml/min, of saline solution into the urinary bladder. The intraluminal pressure signal during infusion was continuously recorded on a polygraph (Battaglia Rangoni KO 380 with ADC1/T amplifier). Two urodynamic parameters were evaluated: bladder volume capacity (BVC) and micturition pressure (MP). BVC (in ml) is defined as the minimum volume infused after which detrusor contraction (followed by micturition) occurs. MP (in mmHg) is defined as the maximal intravesical pressure induced by the contraction of detrusor during micturition. Basal BVC and MP values were calculated as the means of the first two recorded cystometrograms. At this point, the infusion was interrupted and the test compounds were administered. Fifteen minutes after intravenous administration, or one hour after oral drug administration, two additional cystometrograms were recorded in each animal and the mean values of the two cystometrographic parameters were calculated.
The statistical significance of the differences in urodynamic parameter values was evaluated by Student's t test for paired data. Only changes showing a probability P<0.01 were considered to be significant.

Cc1c(-c2ccccc2)oc2c(C(=O)OCCN3CCCCC3)cccc2c1=O [Flavoxate, flavoxate]
AMPLITUDE mm Hg before treatment ([1]; 300 µg/kg i.v. group): 25.9±1.3 mm Hg
FREQUENCY No. contr./15 min before treatment ([1]; 300 µg/kg i.v. group): 9.2±1.2 No. contr./15 min
AMPLITUDE mm Hg after treatment ([1]; 300 µg/kg i.v.): 24.1±1.8 mm Hg
BLADDER CONTRACTIONS Disappearance time ([1]; 300 µg/kg i.v.): 1.70 min
FREQUENCY No. contr./15 min after treatment ([1]; 300 µg/kg i.v.): 8.8±1.7 No. contr./15 min
AMPLITUDE mm Hg before treatment ([1]; 1000 µg/kg i.v. group): 26.1±2.3 mm Hg
FREQUENCY No. contr./15 min before treatment ([1]; 1000 µg/kg i.v. group): 10.1±0.7 No. contr./15 min
AMPLITUDE mm Hg after treatment ([1]; 1000 µg/kg i.v.): 25.0±2.2 mm Hg
BLADDER CONTRACTIONS Disappearance time ([1]; 1000 µg/kg i.v.): 3.04 min
FREQUENCY No. contr./15 min after treatment ([1]; 1000 µg/kg i.v.): 8.6±0.9 No. contr./15 min
AMPLITUDE mm Hg before treatment ([1]; 3000 µg/kg i.v. group): 18.9±0.9 mm Hg
FREQUENCY No. contr./15 min before treatment ([1]; 3000 µg/kg i.v. group): 10.7±0.7 No. contr./15 min
AMPLITUDE mm Hg after treatment ([1]; 3000 µg/kg i.v.): 16.6±1.2 mm Hg
BLADDER CONTRACTIONS Disappearance time ([1]; 3000 µg/kg i.v.): 5.30 min
FREQUENCY No. contr./15 min after treatment ([1]; 3000 µg/kg i.v.): 6.5±0.7 No. contr./15 min
AMPLITUDE mm Hg before treatment ([1]; 10000 µg/kg i.v. group): 19.9±1.6 mm Hg
FREQUENCY No. contr./15 min before treatment ([1]; 10000 µg/kg i.v. group): 11.3±0.8 No. contr./15 min
AMPLITUDE mm Hg after treatment ([1]; 10000 µg/kg i.v.): 19.2±1.5 mm Hg
BLADDER CONTRACTIONS Disappearance time ([1]; 10000 µg/kg i.v.): 8.25 min
BLADDER CONTRACTIONS Disappearance time ([1]; 10000 µg/kg i.v., listed as flavoxate): 8.25 ± 1.90 min
FREQUENCY No. contr./15 min after treatment ([1]; 10000 µg/kg i.v.): 5.5±0.6 No. contr./15 min
ED (10 min disappearance of contractions) ([1]; Rattus norvegicus, iv, 10 min, extrapolated dose inducing 10 min of disappearance of the contractions, linear regression): > 10 mg/kg
ED50 ([1]; Rattus norvegicus, iv, read-out: ED50 FREQUENCY (and 95% confidence limits), i.v., quantal criterion (change ≥30% relative to basal value)): 2.65 mg/kg
BVC before treatment ([2]; 300 µg/kg i.v. group): 0.76 ± 0.11 mL
MP before treatment ([2]; 300 µg/kg i.v. group): 89.2±10.7 mmHg
BVC % change ([2]; 300 µg/kg i.v.): +14%
MP % change ([2]; 300 µg/kg i.v.): +7%
BVC after treatment ([2]; 300 µg/kg i.v.): 0.87 ± 0.11 mL
MP after treatment ([2]; 300 µg/kg i.v.): 95.0±10.9 mmHg
BVC before treatment ([2]; 1000 µg/kg i.v. group): 0.88 ± 0.15 mL
MP before treatment ([2]; 1000 µg/kg i.v. group): 90.4±10.7 mmHg
BVC % change ([2]; 1000 µg/kg i.v.): +26%
MP % change ([2]; 1000 µg/kg i.v.): -12%
BVC after treatment ([2]; 1000 µg/kg i.v.): 1.11 ± 0.16 mL
MP after treatment ([2]; 1000 µg/kg i.v.): 80.1±11.1 mmHg
BVC before treatment ([2]; 3000 µg/kg i.v. group): 0.77 ± 0.08 mL
MP before treatment ([2]; 3000 µg/kg i.v. group): 72.6±9.3 mmHg
BVC % change ([2]; 3000 µg/kg i.v.): +39%
MP % change ([2]; 3000 µg/kg i.v.): +4%
BVC after treatment ([2]; 3000 µg/kg i.v.): 1.07 ± 0.12 mL
MP after treatment ([2]; 3000 µg/kg i.v.): 75.2±9.5 mmHg
effect on MP (in words) ([2]; conscious rats, i.v., NAN-190 up to the highest administrable dose of 300 µg/kg): inactive
